Data published in US20250213547A1, “METHODS OF TREATING NEUROLOGICAL DISEASES” (priority 2022, published 2025).
Converted amounts (≈) assume the structure as drawn.

How the values were obtained:
[1] = clinical; format: in vivo; details: human; for Cmax: mean
Excerpt: The first-in-human clinical trial administered a single-rising dose and included 48 healthy men and women aged 19-55 with a body mass index between 18 kg/m2 and 30 kg/m2. […] Examples 2-5 herein further describes the trial protocol and the results, including data on the bioavailability of solution versus tablet (example 3), fed versus fasting patients (example 4), and PD data (example 5). The data obtained from this trial informed on the safe dosage range for future trials, and was included in the first-step of the modeling analysis described in example 12.
The study enrolled 48 subjects in the single rising dose study. Subjects were sorted into six cohorts and randomly assigned to treatment or placebo groups.
A prior study of soticlestat dosing in dogs guided the safety margin of minimal and maximal single dose selection for human subjects. An initial dosage of 10 mg provided a 44-fold safety margin relative to the maximum safe dosage in dogs. […] Each dose trial contained two placebo subjects. Ascending doses were tested in 2 sentinel subjects at a time to determine safety and tolerability before including the full cohort.
The analytes and internal standards were extracted by solid phase extraction or by dilution. […] Multiple analyses of pooled samples (n=6) verified intra- and inter-assay accuracy with an acceptance criteria of within 15% (CV≤15%) or 20% (CV≤20%) for the LLOQ. PK parameters were analyzed from plasma and urine concentration time data using standard non-compartmental analysis methods with Phoenix WinNonlin™ version 6.3 (Certara, Princeton, N.J. USA). All statistical analyses were performed using SAS software version 9.2 (SAS Institute Inc., Cary, N.C. USA).

[2] = target: T1, CH24H (Homo sapiens, UniProt Q9Y6A2); assay: PK/PD (PK/OE/24HC) turnover modeling; details: for BL / IC50 / IGAM / Imax / KOUT: ELEKTRA subjects; for BL: 24HC baseline
T1 construct: from tissue; host or cells: brain of living human trial subjects (in vivo)
Excerpt: Similar to the PK model, the PK/PD model was developed as a population mixed-effects model and incorporated the individual PK parameters from the final PK population model. A turnover model was used to characterize changes in plasma 24HC overtime. Plasma 24HC was considered to be at steady-state baseline (BL) before the start of treatment. […] PK/PD covariates were screened in a procedure similar to the PK covariates. In the final PK/PD model, two covariates, A1-AGLP and body weight affected baseline 24HC.
The PK/PD analysis dataset consisted of 2165 24HC observations from 3 phase I trials. Four subjects from the ELEKTRA study with large IC50 estimates were excluded from the dataset. Additionally, 42 individuals with large conditional weighted residuals were excluded from the dataset. The final dataset contained 2107 24HC observations from 248 subjects. Table 26 summarizes the modeling dataset with reference to example numbers, respective clinical trial ID, subject numbers, regimen, and number of observations and doses. Tables 27 and 28 summarize the categorical covariates used in PK/OE/24HC analysis from the entire dataset and the ELEKTRA study subset, respectively.
Tables 29 and 30 summarize the mean continuous variables used in the PK/OE/24HC covariate analysis from the entire PK/OE/24HC population studied and the ELEKTRA subset, respectively. In addition to the shared variables, the PK/PD dataset contained the individual final estimates of the population PK model parameters (IND_ALAG1, IND_KA, IND_CL, IND_V2, IND_Q, IND_V3, and IND_F1). Subjects without individual PK parameter estimates (e.g. subjects from the placebo arms) were assigned to the respective geometric mean of the estimated individual parameter values.
A turnover model was used to describe changes in 24HC concentration over time. […] The following formula estimates change in 24HC: […]
The indirect exposure effect (EFF) was estimated by an Imax model:
The effect-site concentration was implemented as a delayed equilibrium with the plasma/brain transit rate parameter (KPLBR):
The scaling parameter KPLBR was previously estimated in a competitive enzyme occupancy model derived from PET brain imaging data (NCT02497235, Table 19). Parameters derived from this base model were fixed at their previous final PK population estimates derived from example 12. However, no random effects could be estimated without enzyme occupancy data. FIG. 26 depicts the basic model structure in relation to observed and unobserved data. There was a strong growth-related increase in baseline 24HC levels, which was only observed in young subjects.
The following variables were screened by forward inclusion, backward exclusion F-tests: • Growth/maturity: Weight, BMI, and age • Protein binding: Albumin (ALB), A1-AGLP • Liver function: AST, ALT, GGT, and ALP • Kidney function: Creatinine clearance (CRCL), eGFR • Categorical variables: Asian, sex. Ethnicity, and disease type

[3] = both sexes, in vivo, po, 200 mg
[4] = both sexes, in vivo, po, 600 mg
[5] = both sexes, in vivo, po, 900 mg
[6] = both sexes, in vivo, po, 1350 mg

T1 sequence (Q9Y6A2 whole entry): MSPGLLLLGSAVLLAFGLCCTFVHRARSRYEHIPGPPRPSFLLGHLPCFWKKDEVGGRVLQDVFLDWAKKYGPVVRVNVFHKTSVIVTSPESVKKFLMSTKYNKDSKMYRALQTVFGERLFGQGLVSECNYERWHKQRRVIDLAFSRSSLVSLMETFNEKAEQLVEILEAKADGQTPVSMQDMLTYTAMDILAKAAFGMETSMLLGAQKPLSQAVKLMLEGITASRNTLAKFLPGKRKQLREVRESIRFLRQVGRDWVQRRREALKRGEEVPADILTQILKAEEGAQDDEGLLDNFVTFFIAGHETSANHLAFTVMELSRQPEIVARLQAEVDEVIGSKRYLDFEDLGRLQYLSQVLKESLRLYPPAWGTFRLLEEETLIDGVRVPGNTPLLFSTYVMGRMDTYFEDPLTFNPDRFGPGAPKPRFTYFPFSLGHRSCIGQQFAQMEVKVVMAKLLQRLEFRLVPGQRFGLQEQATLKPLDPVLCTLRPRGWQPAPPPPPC

O=C(c1cccnc1-c1ccncc1)N1CCC(O)(Cc2ccccc2)CC1 [soticlestat] showed a CL renal ([1]; both sexes, in vivo) of 3.83 to 10.3 mL/min, a Tmax ([1]; both sexes, in vivo, po) of 15 to 31.2 min and a half-life ([1]; both sexes, in vivo, po) of 49.2 to 430 min. It also gave a Tmax ([1]; both sexes, in vivo, po, 15 mg) of 15 min, a Cmax ([1]; both sexes, in vivo, po, 15 mg) of 0.0435 µg/mL and an AUC(0-inf) ([1]; both sexes, in vivo, po, 50 mg) of 0.172 µg·h/mL. The AUC(0-t) ([1]; both sexes, in vivo, po, 50 mg) was 0.169 µg·h/mL, the Tmax ([1]; both sexes, in vivo, po, 50 mg) was 15 min and the Vd/F ([1]; both sexes, in vivo, po, 50 mg) was 1500 L. The Cmax ([1]; both sexes, in vivo, po, 50 mg) was 0.21 µg/mL, the AUC(0-inf) [1, 3] was 0.621 µg·h/mL and the AUC(0-t) [1, 3] was 0.563 µg·h/mL. The Tmax [1, 3] was 15 min, the Vd/F [1, 3] was 2240 L and the Cmax [1, 3] was 0.571 µg/mL. The Tmax [1, 4] was 31.2 min, the Vd/F [1, 4] was 993 L and the Cmax [1, 4] was 4.55 µg/mL. For the same compound, the AUC(0-inf) [1, 5] was 7.66 µg·h/mL, the AUC(0-t) [1, 5] was 7.62 µg·h/mL and the Vd/F [1, 5] was 1230 L. It also gave a Cmax [1, 5] of 5.08 µg/mL, an AUC(0-inf) [1, 6] of 13.5 µg·h/mL and an AUC(0-t) [1, 6] of 13.5 µg·h/mL. The Vd/F [1, 6] was 852 L, the Cmax [1, 6] was 7.95 µg/mL and the Vd/F ([1]; both sexes, plasma, single oral solution dose 15 mg, read-out: Vz/F, mean) was 732 L. For the same compound, the “time of second smaller plasma peak post-dose” value ([1]; both, in vivo) was “approximately 10 hours”, the “t1/2z, mean” value ([1]; both, in vivo, po, 15 mg) was 49.2 min and the “t1/2z, mean” value ([1]; both, in vivo, po, 50 mg) was 179 min. The “t1/2z, mean” value ([1]; both, in vivo, po, 200 mg) was 263 min, the “AUC(0-t), mean” value ([1]; both, in vivo, po, 600 mg) was 5.79 µg·h/mL and the “AUC∞, mean” value ([1]; both, in vivo, po, 600 mg) was 5.81 µg·h/mL. For the same compound, the “t1/2z, mean” value ([1]; both, in vivo, po, 600 mg) was 286 min, the “Tmax, median” value ([1]; both, in vivo, po, 900 mg) was 30 min and the “t1/2z, mean” value ([1]; both, in vivo, po, 900 mg) was 430 min. The “Cmax, mean” value ([1]; both, in vivo, po, 1350 mg) was 7.953 µg/mL, the “t1/2z, mean” value ([1]; both, in vivo, po, 1350 mg) was 319 min and the “dose-proportionality slope, AUC(0-t) (log-log)” value ([1]; in vivo) was 1.38 (1.28, 1.48). The “dose-proportionality slope, AUC∞ (log-log)” value ([1]; in vivo) was 1.42 (1.31, 1.53), the “dose-proportionality slope, Cmax (log-log)” value ([1]; in vivo) was 1.22 (1.11, 1.32) and the “CL/F, mean” value ([1]; in vivo, po, 15 mg) was 689 L/h. The “CL/F, mean” value ([1]; in vivo, po, 50 mg) was 549 L/h, the “CL/F, mean” value ([1]; in vivo, po, 200 mg) was 355 L/h and the “CL/F, mean” value ([1]; in vivo, po, 600 mg) was 145 L/h. The “CL/F, mean” value ([1]; in vivo, po, 900 mg) was 124 L/h, the “CL/F, mean” value ([1]; in vivo, po, 1350 mg) was 112 L/h and the KOUT typical value ([2]; 24HC elimination rate) was 0.0215 h⁻¹. The BL ([2]; Mean) was 96.4 ng/mL, the BL ([2]; Median) was 84.775 ng/mL and the BL ([2]; Range) was 31.63 to 303.45 ng/mL. For the same compound, the IC50 ([2]; Mean) was 0.0128 mg/L (≈ 0.0343 µM), the IGAM ([2]; Mean) was 0.83 and the Imax ([2]; Mean) was 93.5%. For the same compound, the KOUT ([2]; Mean) was 0.022 h⁻¹, the IC50 ([2]; Median) was 0.01006 mg/L (≈ 0.0269 µM) and the IGAM ([2]; Median) was 0.83. The Imax ([2]; Median) was 93.5%, the KOUT ([2]; Median) was 0.022 h⁻¹ and the IC50 ([2]; Range) was 0.00217 to 0.076 mg/L. For the same compound, the IGAM ([2]; Range) was 0.83-0.83, the Imax ([2]; Range) was 93.5-93.5% and the KOUT ([2]; Range) was 0.022-0.022 1/h. For the same compound, the “maximum inhibition of 24HC synthesis (Imax), typical value” ([2]; PK/PD turnover model) was 93%, the “IC50 for 24HC, typical value” ([2]; PK/PD turnover model, soticlestat concentration) was 0.0101 mg/L and the “24HC Baseline (BL): age cut-off” value ([2]; covariate on BL) was 21.2 y. The “24HC Baseline (BL) typical value” ([2]; final PK/OE/24HC model) was 50.5 ng/mL, the “Enzyme Occupancy: KPLBR plasma-brain rate” value ([2]; final PK/OE/24HC model, fixed) was 0.254 h⁻¹ and the “plasma/brain scaling parameter KPLBR (fixed)” value ([2]; from PET enzyme occupancy model) was 0.254 h⁻¹. The Imax typical value ([2]; maximum inhibition of 24HC) was 93.5%.
